Patent US10004718B2, “Erythropoietin expression promoter” (TOHOKU UNIVERSITY, priority 2012, dated 2018)

Experiments:
[1] = system: Leigh cells; assay: Cell death caused by oxidative stress (BSO) in Leigh syndrome patient fibroblasts; type: cell-based, human; settings: compound 10 μM, 4 days after BSO treatment
Protocol: In Examples 2 to 7 and Reference Example 1 below, an erythropoietin-producing human hepatocellular carcinoma cell Hep3B (obtained from ATCC [American Type Culture Collection]) was cultured and maintained under conditions of 5% CO2/20% O2 and 37° C. in an RPMI1640 (manufactured by Life Technologies, Inc./GIBCO) medium containing 100 U/mL penicillin (manufactured by Life Technologies, Inc./GIBCO), 100 μg/mL streptomycin (manufactured by Life Technologies, Inc./GIBCO), and 10% fetal bovine serum (FBS) (manufactured by Life Technologies, Inc./GIBCO) (hereinafter, referred to as “RPMI1640 common medium 1”). In Example 15 below, Leigh syndrome patients were subjected to skin biopsy to obtain skin fibroblast cells, which were then primarily cultured under conditions of 5% CO2/20% O2 and 37° C. in a DMEM low glucose (manufactured by Life Technologies, Inc./GIBCO) medium containing 100 U/mL penicillin (manufactured by Life Technologies, Inc./GIBCO), 100 μg/mL streptomycin (manufactured by Life Technologies, Inc./GIBCO), and 1% FBS (manufactured by Life Technologies, Inc./GIBCO) (hereinafter, referred to as “DMEM low glucose common medium”) to isolate cells (Leigh cells). In Example 13 below, a human kidney-derived cell line HK-2 (obtained from ATCC) was cultured and maintained under conditions of 5% CO2/20% O2 and 37° C. in a DMEM/F12 (manufactured by Life Technologies, Inc./GIBCO) medium containing 100 U/mL penicillin (manufactured by Life Technologies, Inc./GIBCO), 100 μg/mL streptomycin (manufactured by Life Technologies, Inc./GIBCO), and 10% fetal bovine serum (manufactured by Life Technologies, Inc./GIBCO) (hereinafter, referred to as “DMEM/F12 common medium”). In Example 14 below, a rat islet of Langerhans-derived cell line ISN-1e (kindly provided by Hisamitsu Ishihara, Nihon University School of Medicine) was cultured and maintained under conditions of 5% CO2/20% O2 and 37° C. in an RPMI1640 (manufactured by Life Technologies, Inc./GIBCO) medium containing 10 mM HEPES (manufactured by Sigma-Aldrich Corp.), 2 mM glutamine (manufactured by Sigma-Aldrich Corp.), 50 μM β-mercaptoethanol (manufactured by Sigma-Aldrich Corp.), 100 U/mL penicillin (manufactured by Life Technologies, Inc./GIBCO), 100 μg/mL streptomycin (manufactured by Life Technologies, Inc./GIBCO), and 10% FBS (manufactured by Life Technologies, Inc./GIBCO) (hereinafter, referred to as “RPMI1640 common medium 2”).
The Leigh cells were seeded at 4×10^4 cells/well to a 24-well cell culture plate and then cultured for 24 hours. The glutathione synthesis inhibitor BSO (L-buthionine sulphoximine) (manufactured by Sigma-Aldrich Corp.) was mixed at […] into a medium. After culture for 24 hours in the presence of BSO, each of 5 types of compounds (compounds #2, 4, 5, 21, and 35) was mixed at 10 μM into the medium. After culture for 4 days in the presence of these 5 types of compounds, the number of live cells was measured using Cell Counting Kit-8 (manufactured by Dojindo Laboratories) to calculate the survival rate of the cells (“BSO+#2”, “BSO+#4”, “BSO+#5”, “BSO+#21”, and “BSO+#35” of FIG. 17). […]

[2] = system: mRNA expression of the erythropoietin gene; assay: Quantitative PCR of erythropoietin mRNA in Hep3B cells; type: cell-based, human; settings: compound 10 μM, 20% O2, GAPDH internal standard
Protocol: Of the 5 types of compounds confirmed in Example 4 to be effective for promoting the transcriptional activity of the erythropoietin gene promoter, 4 types of compounds (compounds #2, 4, 5, and 21) were selected. From Hep3B cells cultured in RPMI1640 common medium 1 supplemented with each of these 4 types of compounds at a concentration of 10 μM, total RNA was extracted using TriPure Isolation Reagent (manufactured by F. Hoffmann La Roche AG) in a 6-well cell culture plate. Hep3B cells cultured in the absence of the compound (DMSO added) (“20% O2/DMSO” of FIG. 4) were used as a negative control. Hep3B cells cultured in the presence of a GATA-specific inhibitor (K7174 [10 μM]) (“20% O2/K7174” of FIG. 4) and Hep3B cells cultured under hypoxia (1% O2) conditions and in the absence of the compound (DMSO added [1%]) (“1% O2/DMSO” of FIG. 4) were used as positive controls.
The extracted RNA was used as a template to synthesize cDNA using SuperScript III RTS First-strand kit (manufactured by Invitrogen Corp.). Then, the expression of the erythropoietin mRNA was measured by quantitative PCR with GAPDH as an internal standard. The quantitative PCR was carried out using TaqMan® Gene Expression Assays (using GAPDH; Assay ID: Rn99999916_s1, and human erythropoietin; Assay ID: Hs00171267_ml TaqMan® probes [manufactured by Applied Biosystems Inc.]) and Step One Plus Real-Time PCR System (manufactured by Applied Biosystems Inc.).

[3] = system: mouse erythropoietin gene promoter; assay: Luciferase reporter assay of erythropoietin gene promoter in Hep3B cells; type: cell-based; settings: for effect on erythropoietin gene promoter transcriptional activity compared with HIF activator FG-4592: compound 10 μM vs FG-4592 10 μM, 20% O2; for transcription level of the erythropoietin gene promoter: compound 10 μM, 20% O2, 48 hours, vs 20% O2/DMSO
Protocol: A plasmid vector HE-mPro-luc for luciferase assay on the promoter activity of the 5′ upstream transcriptional regulatory region of the mouse erythropoietin gene was prepared by cleaving, with restriction enzymes XbaI and SacI, a region having a length from −571 to +53 bp starting at the translation initiation site of exon 1 of the mouse erythropoietin gene, and inserting this region to a luciferase reporter vector pXP2 (Nordeen S K. BioTechniques. 6: […], 1988).
The Hep3B cells were adjusted to 10×10^4 cells/well in a 24-well cell culture plate and subcultured. Under microscopy, the Hep3B cells that reached a cell density of 70 to 80% were transfected with the plasmid DNA for luciferase reporter assay. The composition of a solution for transfection was prepared by mixing 2 μg of HE-mPro-luc, 50 ng of pRh-TK (manufactured by Promega K.K.), and 2 μl of Lipofectamine 2000 (manufactured by Invitrogen Corp.) with 100 μl of OptiMEM-I (manufactured by Life Technologies, Inc./GIBCO) per well, followed by incubation at room temperature for 20 minutes. The solution was added to the Hep3B cells in the 24-well cell culture plate preincubated in 0.5 ml of serum-free OptiMEM-I medium, and then incubated for 4 hours without serum and antibiotics under conditions of 37° C. and 5% CO2/20% O2. Then, the medium was replaced with RPMI1640 common medium 1 supplemented with each of 5 types of compounds (compounds #2, 4, 5, 18, and 21) at a concentration of 10 μM, followed by further incubation for 48 hours under conditions of 37° C. and 5% CO2/20% O2. Then, the medium was replaced with 0.5 ml of serum-free PBS, and the cells were gently washed, followed by the removal of PBS by suction. This operation was carried out twice. Then, 100 μl of passive lysis buffer (manufactured by Promega K.K.) was added thereto, and the cells were lysed by mixing at room temperature for 20 minutes. Hep3B cells cultured in the absence of the compound (DMSO added [1%]) (“20% O2/DMSO” of FIG. 3) were used as a negative control. Hep3B cells cultured in the presence of an HIF activator (FG-4592 [10 μM]) (“20% O2/FG4592” of FIG. 3) and Hep3B cells cultured under hypoxia (1% O2) conditions and in the absence of the compound (DMSO added [1%]) (“1% O2/DMSO” of FIG. 3) were used as positive controls.
Dual Luciferase Reporter Assay System (manufactured by Promega K.K.) was used in the luciferase reporter assay. The amounts of firefly and Renilla luciferases were measured using a luminometer Lumat LB9507 (manufactured by BERTHOLD TECHNOLOGIES GmbH & Co. KG). The amount of Fire fly luciferase was divided by the amount of Renilla luciferase to calculate the transcriptional activity of the erythropoietin gene.

[4] = system: ATP production in Hep3B cells; assay: ATP production in Hep3B cells; type: cell-based, human; settings: for amount of ATP produced (FIG. 8): compound 10 μM, 24 hours, ratio to DMSO = 1; for increase of ATP concentration in cells relative to the normal level: at least in 3 hours
Protocol: The Hep3B cells were seeded at 1×10^4 cells/well to a 24-well cell culture plate and then cultured under normal oxygen (20% O2) for 24 hours. Each of 36 types of compounds (compounds #1 to 15, 17 to 31, and 34 to 39) was mixed at a concentration of 10 μM into RPMI1640 common medium 1. After further culture under normal oxygen (20% […]) for 3 hours, 6 hours, or 24 hours, the concentration of ATP produced in the medium was measured using ATP Assay Reagent of “Cells” (manufactured by Toyo B-Net Co., Ltd.) and GloMa 96 Microplate Luminometer (manufactured by Promega K.K.). Hep3B cells cultured in the absence of the compound (DMSO added [1%]) (“DMSO” of FIGS. 6 to 8) were used as a negative control. Hep3B cells cultured in the presence of HIF activators (FG-4592 [10 μM], DMOG [10 μM], 3,4-DHB [10 μM], and ciclopirox[10 μM]) (“FG”, “DMOG”, “34-DHB”, and “Ciclo”, respectively, of FIGS. 6 to 8) and Hep3B cells cultured in the presence of a transcriptional repressor GATA-specific inhibitor of erythropoietin (K7174 [10 μM]) (“K7174” of FIGS. 6 to 8) were used as positive controls.

Row | Compound | melting point [°C] | amount of ATP produced (FIG. 8) [4] | also measured
1 | O=C(CC(C(=O)O)c1c[nH]c2ccccc12)c1ccc(Cl)cc1 (stereo not shown) [compound #2, 4-(4-Chlorophenyl)-2-(1H-indol-3-yl)-4-oxo-butanoic acid] | – | – | cell death of the Leigh cells by BSO [1]: efficiently suppress the cell death; mRNA expression level of the erythropoietin gene [2]: increase the mRNA expression level; effect on erythropoietin gene promoter transcriptional activity compared with HIF activator FG-4592 [3]: superior to the effect of the existing HIF activator (FG-4592); transcription level of the erythropoietin gene promoter [3]: increase the transcription level
2 | CCCn1cc(C(CC(=O)c2ccc(C)cc2C)C(=O)O)c2ccccc21 (stereo not shown) [compound #6, 4-(2,4-Dimethylphenyl)-2-(1-propyl-1H-indol-3-yl)-4-oxo-butanoic acid] | 139 to 141 | – | –
3 | CCC(C)CCC(C(=O)O)c1c[nH]c2ccccc12 (stereo not drawn) [compound #18, α-(3-Methyl-1-pentyl)-3-indoleacetic acid] | – | – | effect on erythropoietin gene promoter transcriptional activity compared with HIF activator FG-4592 [3]: superior to the effect of the existing HIF activator (FG-4592); transcription level of the erythropoietin gene promoter [3]: increase the transcription level
4 | O=C(CC(C(=O)O)c1c[nH]c2ccccc12)c1ccccc1 (stereo not shown) [compound #20, 4-Phenyl-2-(1H-indol-3-yl)-4-oxo-butanoic acid] | 149 to 150 | – | –
5 | CCn1cc(CC(=O)O)c2ccccc21 [compound #27, N-Ethyl-3-indoleacetic acid] | – | enhance the amount of ATP produced | –
6 | CCCCn1cc(CC(=O)O)c2ccccc21 [compound #29, N-Butyl-3-indoleacetic acid] | – | enhance the amount of ATP produced | –
7 | CCCCCCn1cc(CC(=O)O)c2ccccc21 [compound #30, N-Hexyl-3-indoleacetic acid] | – | enhance the amount of ATP produced | –
8 | CCCCOc1ccc2cccc(CC(=O)O)c2c1 [compound #33, α-(7-Butoxy-1-naphthalenyl)-acetic acid] | 102 to 104 | – | –
9 | CCCCCOc1ccc2cccc(CC(=O)O)c2c1 [compound #34, α-(7-Pentoxy-1-naphthalenyl)-acetic acid] | 104 to 106 | – | increase of ATP concentration in cells relative to the normal level [4]: two or more times the normal level
10 | COc1ccc2[nH]cc(CC(=O)O)c2c1 [compound #36, 5-Methoxy-3-indoleacetic acid] | – | – | increase of ATP concentration in cells relative to the normal level [4]: two or more times the normal level
11 | CCOc1ccc2[nH]cc(CC(=O)O)c2c1 [compound #37, 5-Ethoxy-3-indoleacetic acid] | 86 to 92.7 | – | –
12 | CCCOc1ccc2[nH]cc(CC(=O)O)c2c1 [compound #38, 5-(1-Propoxy)-3-indoleacetic acid] | 133.6 to 136.8 | enhance the amount of ATP produced | –
13 | CCCCOc1ccc2[nH]cc(CC(=O)O)c2c1 [compound #39, 5-(1-Butoxy)-3-indoleacetic acid] | 137.8 to 141.1 | – | –
